Laboratory results: patent publication US20080051401A1, “2,4,6-Trisubstituted Pyrimidines as Phosphotidylinositol (Pi) 3-Kinase Inhibitors and Their Use in the Treatment of Cancer” (priority 2004, published 2008)
pIC50: −log10 of the molar value.

What was measured:
[1] = system: MDA-MB-468 human breast adenocarcinoma cell line; assay: In vitro MDA-MB-468 human breast adenocarcinoma proliferation assay, Test (c); assay type: cell-based; conditions: BrdU incorporation, 48 hours incubation, read-out: IC50, inhibition of MDA-MB-468 cell growth
From the text: (c) In Vitro MDA-MB-468 Human Breast Adenocarcinoma Proliferation Assay
This assay determines the ability of test compounds to inhibit cell proliferation as assessed using Cellomics Arrayscan technology. A MDA-MB-468 human breast adenocarcinoma cell line (LGC Promochem, Catalogue No. HTB-132) was routinely maintained as described in Biological Assay (b) hereinbefore.
For the proliferation assay, the cells were detached from the culture flask using Accutase and seeded into the inner 60 wells of a black Packard 96 well plate at a density of 8000 cells per well in 100 μl of complete growth media. The outer wells contained 100 μl of sterile PBS. The cells were incubated overnight at 37° C. with 5% CO2 to allow them to adhere.
On day 2, the cells were treated with test compounds and incubated for 48 hours at 37° C. with 5% CO2. […]
BrdU incorporation was detected by incubation for 1 hour at ambient temperature with mouse anti-BrdU antibody (50 μl; Caltag, Burlingame, Calif., US; Catalogue No. MD5200) that was diluted 1:40 in PBS containing 1% BSA and 0.05% Tween-20. […] Subsequently, PBS (100 μl) was added to each well and the plates were analysed using a Cellomics array scan to assess total cell number and number of BrdU positive cells.
Fluorescence dose response data obtained with each compound were analysed and the degree of inhibition of MDA-MB-468 cell growth was expressed as an IC50 value.

[2] = system: phosphorylation of Serine 473 in Akt in MDA-MB-468 human breast adenocarcinoma cell line; assay: In vitro phospho-Ser473 Akt assay, Test (b); assay type: cell-based; conditions: MDA-MB-468 cells, 2 hours incubation, read-out: IC50, inhibition of phosphorylation of Serine 473 in Akt
Method: (b) In Vitro Phospho-Ser473 Akt Assay
This assay determines the ability of test compounds to inhibit phosphorylation of Serine 473 in Akt as assessed using Acumen Explorer technology (Acumen Bioscience Limited), a plate reader that can be used to rapidly quantitate features of images generated by laser-scanning.
A MDA-MB-468 human breast adenocarcinoma cell line (LGC Promochem, Teddington, Middlesex, UK, Catalogue No. HTB-132) was routinely maintained at 37° C. with 5% CO2 up to a confluency of 70-90% in Dulbecco's modified Eagle's growth medium (DMEM; Invitrogen Limited, Paisley, UK Catalogue No. 41966-029) containing 10% heat-inactivated foetal calf serum (FCS; Sigma, Poole, Dorset, UK, Catalogue No. F0392) and 1% L-glutamine (Gibco, Catalogue No. 25030-024).
For the assay, the cells were detached from the culture flask using ‘Accutase’ (Innovative Cell Technologies Inc., San Diego, Calif., USA; Catalogue No. AT104) using standard tissue culture methods and resuspended in media to give 1.7×10^5 cells per ml. Aliquots (90 μl) were seeded into each of the inner 60 wells of a black Packard 96 well plate (PerkinElmer, Boston, Mass., USA; Catalogue No. 6005182) to give a density of ˜15000 cells per well. Aliquots (90 μl) of culture media were placed in the outer wells to prevent edge effects. The cells were incubated overnight at 37° C. with 5% CO2 to allow them to adhere.
On day 2, the cells were treated with test compounds and incubated for 2 hours at 37° C. with 5% CO2. Test compounds were prepared as 10mM stock solutions in DMSO and serially diluted as required with growth media to give a range of concentrations that were 10-fold the required final test concentrations. Aliquots (10 μl) of each compound dilution were placed in a well (in triplicate) to give the final required concentrations. […]
All subsequent aspiration and wash steps were carried out using a Tecan 96 well plate washer (aspiration speed 10 mm/sec). […] An aliquot of PBS (50 μl) was added to each well and the plates were sealed with black plate sealers and the fluorescence signal was detected and analysed. […]

[3] = biological target: T1, p110α Type Ia human PI3K (Homo sapiens, UniProt P42336); assay: In vitro enzyme assay (AlphaScreen), Test (a); assay type: biochemical; conditions: recombinant enzyme, PI(4,5)P2 substrate, ATP 4 μM, read-out: IC50 versus p110α Type Ia human PI3K
T1 construct: full length DNA of each of the p110α, p110β and p110δ Type Ia human PI3K p110 isoforms; 6-His; made in house
From the text: (a) In Vitro Enzyme Assay
The assay used AlphaScreen technology (Gray et al., Analytical Biochemistry, 2003, 313: 234-245) to determine the ability of test compounds to inhibit phosphorylation by recombinant Type I PI3K enzymes of the lipid PI(4,5)P2.
DNA fragments encoding human PI3K catalytic and regulatory subunits were isolated from cDNA libraries using standard molecular biology and PCR cloning techniques. The selected DNA fragments were used to generate baculovirus expression vectors. In particular, full length DNA of each of the p110α, p110β and p110δ Type Ia human PI3K p110 isoforms (EMBL Accession Nos. HSU79143, S67334, Y10055 for p110α, p110β and p110δ respectively) were sub-cloned into a pDEST10 vector (Invitrogen Limited, Fountain drive, Paisley, UK). The vector is a Gateway-adapted version of Fastbac1 containing a 6-His epitope tag. A truncated form of Type Ib human PI3K p110γ isoform corresponding to amino acid residues 144-1102 (EMBL Accession No. X8336A) and the full length human p85α regulatory subunit (EMBL Accession No. HSP13KIN) were also sub-cloned into pFastBac1 vector containing a 6-His epitope tag. The Type Ia p110 constructs were co-expressed with the p85α regulatory subunit. Following expression in the baculovirus system using standard baculovirus expression techniques, expressed proteins were purified using the His epitope tag using standard purification techniques.
DNA corresponding to amino acids 263 to 380 of human Grp1 PH domain was isolated from a cDNA library using standard molecular biology and PCR cloning techniques. […]
Biotinylated-DiC8-PI(3,4,5)P3 (50 nM; Cell Signals Inc., Catalogue No. 107), recombinant purified GST-Grp1 PH protein (2.5 nM) and AlphaScreen Anti-GST donor and acceptor beads (100 ng; Packard Bioscience Limited, Station Road, Pangbourne, Berkshire, UK, Catalogue No. 6760603M) were added and the assay plates were left for about 5 to 20 hours at ambient temperature in the dark. The resultant signals arising from laser light excitation at 680 nm were read using a Packard AlphaQuest instrument. […]

T1 sequence (P42336 whole entry, canonical isoform): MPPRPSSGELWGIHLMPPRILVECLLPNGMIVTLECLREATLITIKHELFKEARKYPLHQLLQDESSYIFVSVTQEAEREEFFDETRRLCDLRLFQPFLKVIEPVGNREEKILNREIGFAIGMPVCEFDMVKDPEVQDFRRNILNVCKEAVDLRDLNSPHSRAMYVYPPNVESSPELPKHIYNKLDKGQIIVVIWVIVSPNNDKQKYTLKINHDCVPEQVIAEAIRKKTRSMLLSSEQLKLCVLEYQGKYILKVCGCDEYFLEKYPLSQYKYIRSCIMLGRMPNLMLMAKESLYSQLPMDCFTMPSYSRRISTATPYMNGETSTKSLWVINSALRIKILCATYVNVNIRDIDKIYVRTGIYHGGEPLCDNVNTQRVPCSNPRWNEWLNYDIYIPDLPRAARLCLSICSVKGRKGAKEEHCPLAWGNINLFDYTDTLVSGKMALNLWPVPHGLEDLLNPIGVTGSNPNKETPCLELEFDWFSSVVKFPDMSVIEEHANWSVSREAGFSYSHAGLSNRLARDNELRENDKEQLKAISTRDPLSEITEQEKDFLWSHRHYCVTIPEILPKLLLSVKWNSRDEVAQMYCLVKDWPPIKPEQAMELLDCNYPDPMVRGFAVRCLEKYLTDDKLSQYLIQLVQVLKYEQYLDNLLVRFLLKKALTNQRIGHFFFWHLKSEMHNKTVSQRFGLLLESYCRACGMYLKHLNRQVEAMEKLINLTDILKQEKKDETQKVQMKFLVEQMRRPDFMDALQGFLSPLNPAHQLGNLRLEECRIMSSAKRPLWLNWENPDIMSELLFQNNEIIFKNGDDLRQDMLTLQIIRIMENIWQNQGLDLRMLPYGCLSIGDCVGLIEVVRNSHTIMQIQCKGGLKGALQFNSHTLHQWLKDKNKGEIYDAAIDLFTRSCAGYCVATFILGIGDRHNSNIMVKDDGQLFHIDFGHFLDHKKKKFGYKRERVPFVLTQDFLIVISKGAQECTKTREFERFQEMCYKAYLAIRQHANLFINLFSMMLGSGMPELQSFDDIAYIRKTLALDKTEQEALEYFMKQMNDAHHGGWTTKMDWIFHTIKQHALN
T1 sequence (P27986 whole entry partner, canonical isoform): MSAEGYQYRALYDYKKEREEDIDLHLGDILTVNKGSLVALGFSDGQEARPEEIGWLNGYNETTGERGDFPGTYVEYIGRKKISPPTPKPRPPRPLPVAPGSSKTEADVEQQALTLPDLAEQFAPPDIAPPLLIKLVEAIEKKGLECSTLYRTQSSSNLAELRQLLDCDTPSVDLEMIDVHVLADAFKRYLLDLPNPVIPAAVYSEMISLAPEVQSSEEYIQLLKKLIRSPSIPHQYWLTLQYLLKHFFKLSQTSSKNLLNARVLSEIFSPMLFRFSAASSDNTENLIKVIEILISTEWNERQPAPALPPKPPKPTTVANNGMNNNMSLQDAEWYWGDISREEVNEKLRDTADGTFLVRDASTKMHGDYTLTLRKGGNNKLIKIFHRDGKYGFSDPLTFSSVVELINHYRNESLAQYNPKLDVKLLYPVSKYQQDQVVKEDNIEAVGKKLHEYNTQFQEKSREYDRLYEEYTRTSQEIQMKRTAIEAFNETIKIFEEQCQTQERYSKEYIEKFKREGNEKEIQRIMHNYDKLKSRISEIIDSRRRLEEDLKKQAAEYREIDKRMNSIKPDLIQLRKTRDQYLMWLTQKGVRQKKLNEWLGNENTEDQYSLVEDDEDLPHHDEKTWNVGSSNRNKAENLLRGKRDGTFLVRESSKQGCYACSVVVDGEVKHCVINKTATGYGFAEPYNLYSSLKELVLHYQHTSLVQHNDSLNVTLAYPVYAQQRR

Row | pIC50 [1] | pIC50 [2] | pIC50 [3] | Structure (SMILES)
1 | ~5.10 | ~5.30 | ~7.00 | O=C(Nc1cccc(-c2cc(N3CCOCC3)nc(-c3cccc(CO)c3)n2)c1)C1CCNCC1 [Example 1, 2-(3-hydroxymethylphenyl)-6-morpholino-4-(3-piperidin-4-ylcarbonylaminophenyl)pyrimidine]
2 |  | ~6.52 | ~7.00 | O=C(Nc1cccc(-c2cc(N3CCOCC3)nc(-c3cccc(O)c3)n2)c1)C1CCCNC1 (stereo not shown) [Example 6, 2-(3-hydroxyphenyl)-6-morpholino-4-(3-piperidin-3-ylcarbonylaminophenyl)pyrimidine]
3 |  | ~6.30 | ~6.52 | O=C(Nc1cccc(-c2cc(N3CCOCC3)nc(-c3cccc(CO)c3)n2)c1)N1CCNCC1 [Example 10, 2-(3-hydroxymethylphenyl)-6-morpholino-4-(3-piperazin-1-ylcarbonylaminophenyl)pyrimidine]
